This is an account of results in patent US20110319392A1, “Thiazole Sulfonamide And Oxazole Sulfonamide Kinase Inhibitors” (priority 2009, published 2011).

Counter-ions that a name gives are not always drawn.

Experiment [1] concerns the target T1, EGFR (Homo sapiens, UniProt P00533).
T1 construct: made in house; host or cells: baculovirus expression system
In words: EGFR substrate phosphorylation assay (HTRF). The class given is biochemical. Put shortly:
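Baculovirus-expressed EGFR (0.8 nM) or ErbB2 (10 nM) in enzyme mix, preincubated 1 h at 20 °C with compound (0.00027–47.6 μM final), then 90 min at 20 °C with substrate mix of 20 μM ATP, 0.8 uM biotinylated Peptide C, MnCl2, MOPS pH 7.5. Phosphotyrosine by HTRF; pIC50 reported.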
A general note: In TR-FRET formats the signal depends on donor and acceptor labels being close together.

Experiment [2] concerns HN5 tumor cells. In words: Cell growth inhibition assay (CellTiter-Glo), HN5. Particulars: Homo sapiens, 72 h; 3 days incubation. The class given is cell-based, Human. Put shortly: (§1)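 Cells plated at 500 cells/well in their growth media, dosed next day with nine-step 1:3 compound dilutions (final DMSO 0.2%), then incubated 3 days at 37° C, 5% CO2. Total ATP read by CellTiter-Glo luminescence as a surrogate for cell number; IC50 interpolated from 4-parameter fit versus DMSO controls.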
In general terms: ATP-based viability assays read luminescence as a measure of living cells.

Experiment [3] deals with A375P F11s tumor cells. Description: Cell growth inhibition assay (CellTiter-Glo), A375P F11s. The class given is cell-based, Human. Conditions: for IC50: Homo sapiens. Put shortly:
as §1

Experiment [4] relates to HT-29 tumor cells. In words: Cell growth inhibition assay (CellTiter-Glo), HT-29. The class given is cell-based, Human. Particulars: Homo sapiens. Summed up: as §1

Usually IC50 stands for the concentration that inhibits the measured activity by half. Read a low IC50 as greater potency.

T1 sequence (P00533 25-1210): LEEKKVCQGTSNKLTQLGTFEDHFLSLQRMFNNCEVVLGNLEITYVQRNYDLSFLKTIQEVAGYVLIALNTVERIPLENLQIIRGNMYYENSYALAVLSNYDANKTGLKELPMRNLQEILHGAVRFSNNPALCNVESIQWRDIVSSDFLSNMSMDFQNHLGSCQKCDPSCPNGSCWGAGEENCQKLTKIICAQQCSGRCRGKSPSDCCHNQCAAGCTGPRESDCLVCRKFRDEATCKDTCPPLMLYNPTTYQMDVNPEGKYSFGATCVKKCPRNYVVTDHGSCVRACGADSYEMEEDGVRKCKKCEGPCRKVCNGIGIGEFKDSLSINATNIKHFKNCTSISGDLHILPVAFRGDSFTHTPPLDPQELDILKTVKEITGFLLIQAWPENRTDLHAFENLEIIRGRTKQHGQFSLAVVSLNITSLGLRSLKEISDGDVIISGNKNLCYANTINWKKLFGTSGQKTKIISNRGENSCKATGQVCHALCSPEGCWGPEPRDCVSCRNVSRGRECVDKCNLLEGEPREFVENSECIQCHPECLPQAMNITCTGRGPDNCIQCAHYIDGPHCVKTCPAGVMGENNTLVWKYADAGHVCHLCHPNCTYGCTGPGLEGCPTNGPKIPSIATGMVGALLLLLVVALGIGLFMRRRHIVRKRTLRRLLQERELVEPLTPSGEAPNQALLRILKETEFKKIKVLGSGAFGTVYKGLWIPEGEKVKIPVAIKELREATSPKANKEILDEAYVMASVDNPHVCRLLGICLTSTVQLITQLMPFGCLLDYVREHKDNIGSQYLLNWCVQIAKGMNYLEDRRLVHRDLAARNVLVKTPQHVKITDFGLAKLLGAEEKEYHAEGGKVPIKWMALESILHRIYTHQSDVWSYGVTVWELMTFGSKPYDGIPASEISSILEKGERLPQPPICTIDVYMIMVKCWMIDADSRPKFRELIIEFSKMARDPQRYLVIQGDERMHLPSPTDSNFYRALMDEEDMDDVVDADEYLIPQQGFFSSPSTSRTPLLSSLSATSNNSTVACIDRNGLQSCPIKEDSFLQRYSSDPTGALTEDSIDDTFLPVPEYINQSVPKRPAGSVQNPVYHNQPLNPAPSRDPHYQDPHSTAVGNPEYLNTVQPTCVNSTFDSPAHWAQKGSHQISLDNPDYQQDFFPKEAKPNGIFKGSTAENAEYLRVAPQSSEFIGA

In the case of `CC(=O)N1CCN(c2ccc(Nc3nccc(-c4sc(C(C)C)nc4-c4cccc(NS(=O)(=O)c5cccc(F)c5)c4)n3)cn2)CC1` [Example 11, N-{3-[5-(2-{[6-(4-Acetyl-1-piperazinyl)-3-pyridinyl]amino}-4-pyrimidinyl)-2-(1-methylethyl)-1,3-thiazol-4-yl]phenyl}-3-fluorobenzenesulfonamide], the IC50 in experiment [1] was 100 to 1000 nM; in experiment [2], over 1000 nM; in experiment [3], under 100 nM; in experiment [4] it was under 100 nM.

Take `CS(=O)(=O)CCN1CCN(c2ccc(Nc3nccc(-c4oc(N5CCCC5)nc4-c4cccc(NS(=O)(=O)c5c(F)cccc5F)c4F)n3)cc2F)CC1` [Example 167]: the IC50 in experiment [1] is 100 to 1000 nM; in experiment [2] it was 100 to 1000 nM; in experiment [3], under 100 nM; in experiment [4], under 100 nM.

Take `Cc1cc(N2CCN(CCS(C)(=O)=O)CC2)ncc1Nc1nccc(-c2sc(C(C)C)nc2-c2cccc(NS(=O)(=O)c3c(F)cccc3F)c2)n1` [Example 131]: the IC50 was over 1000 nM in experiment [1], over 1000 nM in experiment [2], under 100 nM in experiment [3] and under 100 nM in experiment [4].

Take `Cc1nc(Cl)sc1S(=O)(=O)Nc1cccc(-c2nc(C(C)C)sc2-c2ccnc(Nc3ccc(N4CCOCC4)nc3)n2)c1` [Example 42]: the 50% inhibitory concentration (IC50) was over 1000 nM in experiment [1], under 100 nM in experiment [2], 100 to 1000 nM in experiment [3] and 100 to 1000 nM in experiment [4].

On to `Cc1cc(N2CCOCC2)ncc1Nc1nccc(-c2sc(N3CCCC3)nc2-c2cccc(NS(=O)(=O)c3c(F)cccc3F)c2)n1` [Example 124], for which the half-inhibitory concentration (IC50) in experiment [1], in experiment [2] and in experiment [4] was over 1000 nM each time. Also, the “Activity in A375P F11s Tumor Cells” value in experiment [3] is reported as “+ (activity of >1 μM in A375P F11s tumor cells)”.

Turning to `O=S(=O)(Nc1cccc(-c2nc(N3CCCCC3)sc2-c2ccnc(Nc3ccc(N4CCOCC4)nc3)n2)c1)c1c(F)cccc1F` [Example 151], the IC50 in experiment [1] was over 1000 nM; in experiment [2], 100 to 1000 nM; in experiment [3] it was under 100 nM; in experiment [4] it was under 100 nM.

`O=S(=O)(Nc1cc(-c2nc(N3CCCC3)sc2-c2ccnc(Nc3ccc(N4CCOCC4)nc3)n2)ccc1F)c1c(F)cccc1F` [Example 26, 2,6-Difluoro-N-{2-fluoro-5-[5-(2-{(6-(4-morpholinyl)-3-pyridinyl]amino}-4-pyrimidinyl)-2-(1-pyrrolidinyl)-1,3-thiazol-4-yl]phenyl}benzenesulfonamide]: the IC50 in experiment [1] was 100 to 1000 nM; in experiment [2], over 1000 nM; in experiment [3] it was under 100 nM; in experiment [4], over 1000 nM.

Regarding `CC(C)c1nc(-c2cccc(NS(=O)(=O)c3c(F)cccc3F)c2)c(-c2ccnc(Nc3ccc(N4CCOCC4)c(F)c3)n2)o1` [Example 57], the half-inhibitory concentration (IC50) in experiment [1], in experiment [2], in experiment [3] and in experiment [4] was 100 to 1000 nM throughout.

As for `O=S(=O)(Nc1cccc(-c2nc(N3CCOCC3)sc2-c2ccnc(Nc3ccc(N4CCOCC4)nc3)n2)c1F)c1c(F)cccc1F` [Example 122], the IC50 in experiment [1] is 100 to 1000 nM; in experiment [2], 100 to 1000 nM; in experiment [3], under 100 nM; in experiment [4], under 100 nM.

Turning to `O=S1(=O)Cc2ccc(Nc3nccc(-c4sc(N5CCOCC5)nc4-c4cccc(NS(=O)(=O)c5c(F)cccc5F)c4F)n3)cc2C1` [Example 155], the IC50 was 100 to 1000 nM in experiment [1], 100 to 1000 nM in experiment [2], under 100 nM in experiment [3] and under 100 nM in experiment [4].

In the case of `CN1CCN(c2nc(-c3ccc(F)c(NS(=O)(=O)c4c(F)cccc4F)c3)c(-c3ccnc(Nc4ccc(N5CCOCC5)nc4)n3)s2)CC1` [Example 126], the IC50 in experiment [1], in experiment [2], in experiment [3] and in experiment [4] was 100 to 1000 nM in each case.

Turning to `CC(=O)N1CCN(c2ccc(Nc3nccc(-c4sc(C(C)C)nc4-c4cccc(NS(=O)(=O)C5CCCCC5)c4)n3)cn2)CC1` [Example 39], the 50% inhibitory concentration (IC50) is 100 to 1000 nM in experiment [1], over 1000 nM in experiment [2], 100 to 1000 nM in experiment [3] and over 1000 nM in experiment [4].

On to `CC(C)(C)c1nc(-c2ccc(F)c(NS(=O)(=O)c3c(F)cccc3F)c2)c(-c2ccnc(Nc3ccc(N4CCOCC4)nc3)n2)s1` [Example 28, N-{5-[2-(1,1-Dimethylethyl)-5-(2-{[[6-(4-morpholinyl)-3-pyridinyl]amino}-4-pyrimidinyl)-1,3-thiazol-4-yl]-2-fluorophenyl]-2,6-difluorobenzenesulfonamide hydrochloride], for which the IC50 is over 1000 nM in experiment [1], over 1000 nM in experiment [2], under 100 nM in experiment [3] and 100 to 1000 nM in experiment [4].

Regarding `O=S(=O)(Nc1cc(-c2nc(N3CCOCC3)sc2-c2ccnc(Nc3ccc(N4CCOCC4)nc3)n2)ccc1F)c1c(F)cccc1F` [Example 121], the half-inhibitory concentration (IC50) in experiment [1], in experiment [2], in experiment [3] and in experiment [4] was 100 to 1000 nM throughout.

With `CC(C)c1nc(-c2ccc(F)c(NS(=O)(=O)c3c(F)cccc3F)c2)c(-c2ccnc(Nc3ccc(N4CCN(CCF)CC4)c(F)c3)n2)s1` [Example 25], the IC50 in experiment [1] was 100 to 1000 nM; in experiment [2] it was over 1000 nM; in experiment [3] it was 100 to 1000 nM; in experiment [4] it was 100 to 1000 nM.

With `O=S(=O)(Nc1cc(-c2nc(N3CCOCC3)sc2-c2ccnc(Nc3ccc4c(c3)OCCO4)n2)ccc1F)c1c(F)cccc1F` [Example 127], the IC50 in experiment [1] is 100 to 1000 nM; in experiment [2], over 1000 nM; in experiment [4], over 1000 nM. The “Activity in A375P F11s Tumor Cells” value in experiment [3] was “+ (activity of >1 μM in A375P F11s tumor cells)”.

For the molecule `CC(C)c1nc(-c2ccnc(NS(=O)(=O)c3c(F)cccc3F)c2)c(-c2ccnc(Nc3ccc(N4CCN(CCF)CC4)c(F)c3)n2)s1` [Example 100], the IC50 is over 1000 nM in experiment [1], under 100 nM in experiment [2], under 100 nM in experiment [3] and 100 to 1000 nM in experiment [4].

For the molecule `CC(C)c1nc(-c2cccc(NS(=O)(=O)c3c(F)cccc3F)c2)c(-c2ccnc(Nc3ccc(N4CCOCC4)c(C(=O)O)c3)n2)s1` [Example 14, 5-({4-[4-(3-{[(2,6-Difluorophenyl)sulfonyl]amino}phenyl)-2-(1-methylethyl)-1,3-thiazol-5-yl]-2-pyrimidinyl}amino)-2-(4-morpholinyl)benzoic acid], the IC50 in experiment [1] is 100 to 1000 nM; in experiment [2] it was over 1000 nM; in experiment [3], under 100 nM; in experiment [4], 100 to 1000 nM.

`CC(C)(C)c1nc(-c2ccc(F)c(NS(=O)(=O)c3c(F)cccc3F)c2)c(-c2ccnc(Nc3ccc(N4CCN(CCF)CC4)c(F)c3)n2)s1` [Example 99]: the IC50 in experiment [1] is over 1000 nM; in experiment [2], over 1000 nM; in experiment [3], 100 to 1000 nM; in experiment [4] it was over 1000 nM.

As for `CC(C)c1nc(-c2cccc(NS(=O)(=O)c3ccccc3)c2)c(-c2ccnc(Nc3ccc(N4CCOCC4)nc3)n2)s1` [Example 8, N-{3-[2-(1-Methylethyl)-5-(2-{[6-(4-morpholinyl)-3-pyridinyl]amino}-4-pyrimidinyl)-1,3-thiazol-4-yl]phenyl}benzenesulfonamide hydrochloride], the IC50 in experiment [1] was 100 to 1000 nM; in experiment [2], over 1000 nM; in experiment [3] it was under 100 nM; in experiment [4] it was 100 to 1000 nM.

Consider `CC(C)c1nc(-c2cccc(NS(=O)(=O)C3CCCCC3)c2)c(-c2ccnc(Nc3ccc(N4CCOCC4)c(F)c3)n2)s1` [Example 38], for which the IC50 in experiment [1] was over 1000 nM; in experiment [2], over 1000 nM; in experiment [3], 100 to 1000 nM; in experiment [4] it was over 1000 nM.

In the case of `CC(C)c1nc(-c2cccc(NS(=O)(=O)c3c(F)cccc3F)n2)c(-c2ccnc(Nc3ccc(N4CCOCC4)nc3)n2)s1` [Example 44], the IC50 in experiment [1] was over 1000 nM; in experiment [2] it was over 1000 nM; in experiment [3], 100 to 1000 nM; in experiment [4], 100 to 1000 nM.
